Source: US10208011B2, “Benzothiophene estrogen receptor modulators” (G1 Therapeutics, Inc., priority 2017, dated 2019)

How the values were obtained:
[1] = target: estrogen receptor α in MCF7 cells (Homo sapiens (Human), UniProt P03372); assay: Estrogen Receptor (ER) Degradation Assay (In-Cell Western); type: cell-based; settings: for % Estrogen Receptor Remaining: vehicle set to 100%; for IC50: 24 hours, In-Cell Western
Description: A screening strategy was implemented utilizing an In-Cell Western assay to measure their ability to degrade the estrogen receptor in vitro. MCF7 cells, which are estrogen receptor positive, were plated at a cell density of […] into black walled clear bottom 96-well plates. Cells were incubated in phenol red free Dulbecco's Modified Eagle Media (DMEM) supplemented with 8% charcoal-stripped fetal bovine calf serum for 24 hours in a humidified 37° C. incubator. Concentrated stock compounds were diluted to 10× in complete media. Compounds were added to the plated cells in a dose-dependent manner ranging from 1E-12 to 1E-05 M and incubated for an additional 24 hours at 37° C. Culture medium was removed from the culture plates by gentle inversion. Cells were fixed in 4% paraformaldehyde in 1× phosphate buffered saline-calcium magnesium free (PBS-CMF) for 15 minutes at room temperature, washed 3 times for 5 minutes each in 1×PBS-CMF. Cells were permeabilized in immunofluorescence (IF) blocking buffer (Cell Signaling #12411) containing 0.3% Triton X100. Cells were washed 3 times for 5 minutes each in 1×PBS-CMF and incubated in estrogen receptor α (D6R2W) rabbit primary antibody (Cell Signaling #13258) diluted 1:300 in IF antibody dilution buffer (Cell Signaling #12378). Cells were washed 3 times for 5 minutes each in 1×PBS-CMF and stained with goat anti-rabbit (Biotium #CF770) secondary antibody diluted 1:2000 in IF antibody dilution buffer and normalizing stain CellTag 700 diluted 1:500 (Licor #926-41090). ER protein expression was assessed by the Licor Odyssey CLx imaging system using Image Studio v5.2. Data is processed utilizing GraphPad Prism 7 by subtracting background from the vehicle and setting the vehicle to 100% ER activity, followed by comparing treated samples to vehicle. This procedure was used to produce the graph in FIG. 2, FIG. 3, FIG. 4, FIG. 5, FIG. 6, FIG. 7, and FIG. 8.
(§1) In the below table for the Estrogen Receptor Degradation Assay and the Human ERα Reporter Assay: […]

[2] = target: human estrogen receptor (ERα) (Homo sapiens (Human), UniProt P03372); assay: Human ERα Reporter Assay (Indigo Biosciences); type: cell-based; settings: antagonist mode, 17β-estradiol 8E-10 M, 24 hours
Description: All reagents used in this assay was supplied in the Human ERα Reporter Assay by Indigo Biosciences # IB00401. In an effort to screen selective estrogen receptor degraders (SERDs), the Human ERα Reporter Assay, supplied by Indigo Biosciences, was utilized to quantify antagonist functional activity against the human estrogen receptor. Reporter cells were thawed at 37° C. and added to pre-warmed to 37° C. cell recovery medium (CRM). Stock concentration of 17β-estradiol was serially diluted in CRM. Diluted 17β-estradiol was added to CRM containing reporter cells resulting in a working concentration of 1.6 nM (2×). Cells plus 17β-estradiol were dispensed in a kit-supplied white walled 96-well plate. Concentrated stocks of test compounds were diluted to 2× working concentrations in cell screening medium (CSM). 2× concentrated compounds were added to the plated cells in a dose-dependent manner resulting in a final concentration range of 1E-11 to 1E-5 M and a final 17β-estradiol concentration of 8E-10 M. Assay plates were incubated for 24 hours in a humidified 37° C. incubator. Culture medium was removed from the assay plates by inversion. Detection substrate and buffer was warmed to room temperature, mixed thoroughly, and immediately added to the assay plates. Assay plates were incubated for 15 minutes at room temperature protected from light. Luminescence was measured in a Synergy HTX luminescence plate reader. Data is processed utilizing GraphPad Prism 7 by graphing the relative light units measured at each compound concentration. This procedure was used to produce the graph in FIG. 1, FIG. 9, FIG. 10, FIG. 11, FIG. 12, FIG. 13, and FIG. 14.
as §1

Sequence of estrogen receptor α in MCF7 cells (P03372 whole entry): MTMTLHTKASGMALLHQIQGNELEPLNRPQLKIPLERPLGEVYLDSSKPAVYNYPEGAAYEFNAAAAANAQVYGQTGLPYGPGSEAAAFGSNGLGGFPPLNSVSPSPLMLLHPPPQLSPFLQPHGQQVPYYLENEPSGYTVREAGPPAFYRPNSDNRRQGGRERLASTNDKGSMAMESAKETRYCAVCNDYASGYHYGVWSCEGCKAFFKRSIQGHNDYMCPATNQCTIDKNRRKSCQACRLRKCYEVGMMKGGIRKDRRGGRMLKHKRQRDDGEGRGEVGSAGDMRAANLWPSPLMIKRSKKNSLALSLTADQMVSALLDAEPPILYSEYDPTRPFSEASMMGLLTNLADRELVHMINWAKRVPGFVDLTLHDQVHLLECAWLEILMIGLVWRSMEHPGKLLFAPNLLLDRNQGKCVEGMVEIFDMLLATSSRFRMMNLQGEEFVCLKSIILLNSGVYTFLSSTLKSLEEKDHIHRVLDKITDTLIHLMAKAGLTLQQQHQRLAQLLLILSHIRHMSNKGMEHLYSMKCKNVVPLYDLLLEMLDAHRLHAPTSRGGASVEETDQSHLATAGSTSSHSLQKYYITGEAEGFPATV
Sequence of human estrogen receptor (ERα) (P03372 whole entry): as above

Structure (SMILES) | % Estrogen Receptor Remaining [1] | IC50 [2] | IC50 [1]
CCNCCc1ccc(CN(CC)c2cc(OC)ccc2[C@@H]2CCc3cc(O)ccc3C2)cc1.Cl.Cl (stereo in doubt) [RAD- 1901, reference compound] | **** (**** denotes 0-40% Estrogen Receptor remaining) |  | 
CCNCCc1ccc(Oc2c(C(=O)c3c(C)cc(F)cc3C)sc3cc(O)ccc23)cc1 [Compound 100, (3-(4-(2-(ethylamino)ethyl)phenoxy)-6-hydroxybenzo[b]thiophen-2-yl)(4-fluoro-2,6-dimethylphenyl)methanone] | **** (**** denotes 0-40% Estrogen Receptor remaining) | < 1 µM | < 1 µM
Cc1cc(F)cc(C)c1C(=O)c1sc2cc(O)ccc2c1Oc1ccc(N2CCCCC2)cc1 [Compound 101, (4-fluoro-2,6-dimethylphenyl)(6-hydroxy-3-(4-(piperidin-1-yl)phenoxy)benzo[b]thiophen-2-yl)methanone] | *** (*** denotes 41-70% Estrogen Receptor remaining) | < 1 µM | < 1 µM
Cc1cc(F)cc(C)c1C(=O)c1sc2cc(O)ccc2c1Oc1ccc(N2CCCCCC2)cc1 [Compound 102, (3-(4-(azepan-1-yl)phenoxy)-6-hydroxybenzo[b]thiophen-2-yl)(4-fluoro-2,6-dimethylphenyl)methanone] | *** (*** denotes 41-70% Estrogen Receptor remaining) | < 1 µM | < 1 µM
Cc1cc(F)cc(C)c1C(=O)c1sc2cc(O)ccc2c1Oc1ccc(C2CCCNC2)cc1 (stereo not shown) [Compound 103, (4-fluoro-2,6-dimethylphenyl)(6-hydroxy-3-(4-(piperidin-3-yl)phenoxy)benzo[b]thiophen-2-yl)methanone] | **** (**** denotes 0-40% Estrogen Receptor remaining) | < 1 µM | < 50 µM
Cc1cc(F)cc(C)c1C(=O)c1sc2cc(O)ccc2c1Oc1ccc(CCN)cc1 [Compound 104, (3-(4-(2-aminoethyl)phenoxy)-6-hydroxybenzo[b]thiophen-2-yl)(4-fluoro-2,6-dimethylphenyl)methanone] | *** (*** denotes 41-70% Estrogen Receptor remaining) | < 1 µM | < 1 µM
Cc1cc(F)cc(C)c1C(=O)c1sc2cc(O)ccc2c1Oc1ccc(CCNC(C)C)cc1 [Compound 105, (4-fluoro-2,6-dimethylphenyl)(6-hydroxy-3-(4-(2-(isopropylamino)ethyl)phenoxy)benzo[b]thiophen-2-yl)methanone] | **** (**** denotes 0-40% Estrogen Receptor remaining) | < 1 µM | < 50 µM
Cc1cc(F)cc(C)c1C(=O)c1sc2cc(O)ccc2c1Oc1ccc(OCCN2CCCCC2)cc1 [Compound 106, (4-fluoro-2,6-dimethylphenyl)(6-hydroxy-3-(4-(2-(piperidin-1-yl)ethoxy)phenoxy)benzo[b]thiophen-2-yl)methanone] | *** (*** denotes 41-70% Estrogen Receptor remaining) |  | 
Cc1cc(F)cc(C)c1C(=O)c1sc2cc(O)ccc2c1Oc1ccc(OCCN2CCCCCC2)cc1 [Compound 107, (3-(4-(2-(azepan-1-yl)ethoxy)phenoxy)-6-hydroxybenzo[b]thiophen-2-yl)(4-fluoro-2,6-dimethylphenyl)methanone] | *** (*** denotes 41-70% Estrogen Receptor remaining) |  | 
Cc1cc(F)cc(C)c1C(=O)c1sc2cc(O)ccc2c1Oc1ccc(OCCN2CCCC2)cc1 [Compound 108, (4-fluoro-2,6-dimethylphenyl)(6-hydroxy-3-(4-(2-(pyrrolidin-1-yl)ethoxy)phenoxy)benzo[b]thiophen-2-yl)methanone] | *** (*** denotes 41-70% Estrogen Receptor remaining) |  | 
CCC(CC)NCCc1ccc(Oc2c(C(=O)c3c(C)cc(F)cc3C)sc3cc(O)ccc23)cc1 [Compound 109, (4-fluoro-2,6-dimethylphenyl)(6-hydroxy-3-(4-(2-(pentan-3-ylamino)ethyl)phenoxy)benzo[b]thiophen-2-yl)methanone] | *** (*** denotes 41-70% Estrogen Receptor remaining) | < 1 µM | < 1 µM
Cc1cc(F)cc(C)c1C(=O)c1sc2cc(O)ccc2c1Oc1ccc(CCNC2CCCCC2)cc1 [Compound 110, (3-(4-(2-(cyclohexylamino)ethyl)phenoxy)-6-hydroxybenzo[b]thiophen-2-yl)(4-fluoro-2,6-dimethylphenyl)methanone] | *** (*** denotes 41-70% Estrogen Receptor remaining) | < 1 µM | < 1 µM
CCC(C)NCCc1ccc(Oc2c(C(=O)c3c(C)cc(F)cc3C)sc3cc(O)ccc23)cc1 (stereo not shown) [Compound 111, (3-(4-(2-(sec-butylamino)ethyl)phenoxy)-6-hydroxybenzo[b]thiophen-2-yl)(4-fluoro-2,6-dimethylphenyl)methanone] | **** (**** denotes 0-40% Estrogen Receptor remaining) | < 1 µM | < 1 µM
CCN(CC)CCc1ccc(Oc2c(C(=O)c3c(C)cc(F)cc3C)sc3cc(O)ccc23)cc1 [Compound 112, (3-(4-(2-(diethylamino)ethyl)phenoxy)-6-hydroxybenzo[b]thiophen-2-yl)(4-fluoro-2,6-dimethylphenyl)methanone] | *** (*** denotes 41-70% Estrogen Receptor remaining) | < 1 µM | < 1 µM
CNCc1ccc(Oc2c(C(=O)c3c(C)cc(F)cc3C)sc3cc(O)ccc23)cc1 [Compound 113, (4-fluoro-2,6-dimethylphenyl)(6-hydroxy-3-(4-((methylamino)methyl)phenoxy)benzo[b]thiophen-2-yl)methanone] | *** (*** denotes 41-70% Estrogen Receptor remaining) | < 1 µM | < 1 µM
Cc1cc(F)cc(C)c1C(=O)c1sc2cc(O)ccc2c1Oc1ccc(CN(C)C)cc1 [Compound 114, (3-(4-((dimethylamino)methyl)phenoxy)-6-hydroxybenzo[b]thiophen-2-yl)(4-fluoro-2,6-dimethylphenyl)methanone] | ** (** denotes 71-90% Estrogen Receptor remaining) | < 1 µM | < 1 µM
Cc1cc(F)cc(C)c1C(=O)c1sc2cc(O)ccc2c1Oc1ccc(CN)cc1 [Compound 115, (3-(4-(aminomethyl)phenoxy)-6-hydroxybenzo[b]thiophen-2-yl)(4-fluoro-2,6-dimethylphenyl)methanone] | *** (*** denotes 41-70% Estrogen Receptor remaining) | < 1 µM | < 1 µM
CNCCCc1ccc(Oc2c(C(=O)c3c(C)cc(F)cc3C)sc3cc(O)ccc23)cc1 [Compound 116, (4-fluoro-2,6-dimethylphenyl)(6-hydroxy-3-(4-(3-(methylamino)propyl)phenoxy)benzo[b]thiophen-2-yl)methanone] | *** (*** denotes 41-70% Estrogen Receptor remaining) | < 1 µM | < 1 µM
Cc1cc(F)cc(C)c1C(=O)c1sc2cc(O)ccc2c1Oc1ccc(CCN2CC(CF)C2)cc1 [Compound 117, (4-fluoro-2,6-dimethylphenyl)(3-(4-(2-(3-(fluoromethyl)azetidin-1-yl)ethyl)phenoxy)-6-hydroxybenzo[b]thiophen-2-yl)methanone] | *** (*** denotes 41-70% Estrogen Receptor remaining) | < 1 µM | < 1 µM
Cc1cc(F)cc(C)c1C(=O)c1sc2cc(O)ccc2c1Oc1ccc(CCN2CC[C@H](C)C2)cc1 [Compound 118, (S)-(4-fluoro-2,6-dimethylphenyl)(6-hydroxy-3-(4-(2-(3-methylpyrrolidin-1-yl)ethyl)phenoxy)benzo[b]thiophen-2-yl)methanone] | *** (*** denotes 41-70% Estrogen Receptor remaining) | < 1 µM | < 1 µM
